In PubChem BioAssay AID1963863 (Molecular Pharmacology Branch, DTP, NCI, 2024):

System: 931267-113-T-J1-PDC KRAS spheroid with HUVEC/MSC, viability
Test: Anticancer human tumor 931267-113-T-J1-PDC patient-derived colon adenocarcinoma cell line growth inhibition [KRAS2]
Conditions: for viability, T/C: stronger effect = lower value
Text: Multicellular complex tumor spheroid response to RAS pathway inhibitors in combination with a targeted agents in patient-derived cell lines with oncogenic KRAS variants from multiple cancer types
A high-throughput screen of multi-cell type tumor spheroids was designed to identify active combinations of targeted small molecules and KRAS pathway inhibitors. Complex spheroids include a stromal component modeled by human endothelial cells (HUVEC) and fibroblasts modeled by human mesenchymal stem cells (MSCs). The concentration ranges selected for each drug and investigational agent were based upon clinically achievable concentrations if the clinical Cmax of the agent was known.
Compounds. The drugs and investigational agents: BI-3406 (NSC825286), BAY-293 (NSC824723), batoprotafib (TNO155; NSC825523), sotorasib (AMG 510; NSC818433), MRTX1257 (NSC819558), elimusertib (BAY 1895344; NSC800525), molibresib (GSK525762; NSC774829), temuterkib (LY3214996; NSC803410), venetoclax (NSC766270), alisertib (NSC759677), olaparib (NSC753686), talazoparib (NSC767125), erdafitinib (NSC781556), ipatasertib (NSC767898), cabozantinib (NSC761068), nintedanib (NSC756659), abemaciclib (NSC768073), docetaxel (NSC628503), trametinib (NSC758246), and sapanisertib (NSC764658) were obtained from the National Cancer Institute (NCI) Developmental Therapeutics Program Chemical Repository. The FDA-approved anticancer drug set is available from the Developmental Therapeutics Program. […] The stock solutions were prepared in dimethyl sulfoxide (DMSO, Sigma-Aldrich, St. Louis, MO, cat. D2650) at 800-fold the tested concentration and stored at -70 degrees C prior to their use. All drugs and investigational agents were tested over a range starting from a high concentration at or near the clinical Cmax and decreasing in half-log increments. If the clinical Cmax for an agent had not been determined, the highest concentration tested was 10 microM.
Cell Culture. All cells were maintained in an incubator at 37 degrees C and 5% CO2 with 95% humidity. The PDC lines were cultured according to standard operating procedures established by the NCI PDMR (https://pdmr.cancer.gov/sops/default.htm). Briefly, all PDCs were thawed and cultured in Matrigel-coated flasks prepared with a working solution of 1X Ham's F-12 nutrient mix, without supplementation (Invitrogen, Waltham, MA, cat. 11765054), 100 U/mL penicillin-streptomycin (Invitrogen, cat. 15140122), and 2.5% Matrigel (Corning Inc., Corning, NY, cat. 354248) for the first three passages. All PDCs were cultured in complete DMEM/F-12 media containing advanced DMEM/F-12 (Invitrogen, cat. 12634028), 4.9% defined fetal bovine serum, heat inactivated (HyClone Laboratories Inc., Logan, UT, cat. SH30070.03HI), 389 ng/mL hydrocortisone (Sigma-Aldrich, cat. H4001), 9.7 ng/mL human EGF recombinant protein (Invitrogen, cat. PHG0313), 23.4 microg/mL adenine (Sigma-Aldrich, cat. A2786), 97.3 U/mL penicillin-streptomycin (Invitrogen, cat. 15140122), 1.9 mM L-glutamine (Invitrogen, cat. 25030081), and 9.7 microM Y-27632 dihydrochloride (Tocris Bioscience, Bristol, United Kingdom, cat. 1254). The PDCs were cultured in complete DMEM/F12 media without 9.7 microM Y-27632 dihydrochloride for at least two passages prior to the screen. The established cell line HOP-62 was cultured in RPMI 1640 medium, HEPES (Invitrogen, cat. 22400105) with 10% defined fetal bovine serum (HyClone Laboratories Inc., cat. SH30070.03) and 2 mM L-glutamine (Invitrogen, cat. 25030081). The pooled donor HUVEC were cultured in endothelial cell growth medium 2 (PromoCell, Heidelberg, Germany, cat. C-22011) and the hMSC were cultured in mesenchymal stem cell growth medium 2 (PromoCell, cat. C-28009). For all experiments, HUVEC and hMSC were used at passages </=5, while the malignant cell lines were used at passages </=15. […]

[1] = curve of first compound, second compound 0.1 µM
[2] = curve of first compound, second compound 0.316 µM
[3] = curve of first compound, second compound 1 µM
[4] = curve of first compound, second compound 3.16 µM
[5] = curve of first compound, second compound 10 µM
[6] = second compound 0.1 µM, first compound 0.01 µM
[7] = second compound 0.1 µM, first compound 0.0316 µM
[8] = second compound 0.316 µM, first compound 0.01 µM
[9] = second compound 0.316 µM, first compound 0.0316 µM
[10] = second compound 1 µM, first compound 0.01 µM
[11] = second compound 1 µM, first compound 0.0316 µM
[12] = second compound 3.16 µM, first compound 0.01 µM
[13] = second compound 3.16 µM, first compound 0.0316 µM
[14] = second compound 10 µM, first compound 0.01 µM
[15] = second compound 10 µM, first compound 0.0316 µM
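Further: compound exposure lasted 7 days before the readout.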
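Wherever viability, T/C is given: 100% = DMSO vehicle control viability.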

CC(=O)OC12COC1CC(O)C1(C)C(=O)C(O)C3=C(C)C(OC(=O)C(O)C(NC(=O)OC(C)(C)C)c4ccccc4)CC(O)(C(OC(=O)c4ccccc4)C21)C3(C)C (configuration not stated) + CNCc1ccccc1-c1csc(C(C)Nc2nc(C)nc3cc(OC)c(OC)cc23)c1
IC50 [1]: > 3160 nM
IC50 [2]: > 3160 nM
IC50 [3]: > 3160 nM
IC50 [4]: < 10 nM
IC50 [5]: < 10 nM
viability, T/C [6]: 88.2%
viability, T/C [7]: 99.3%
viability, T/C (second compound 0.1 µM, first compound 0.1 µM): 109%
viability, T/C (second compound 0.1 µM, first compound 0.316 µM): 98.9%
viability, T/C (second compound 0.1 µM, first compound 1 µM): 82%
viability, T/C (second compound 0.1 µM, first compound 3.16 µM): 87.8%
viability, T/C [8]: 109%
viability, T/C [9]: 110%
viability, T/C (second compound 0.316 µM, first compound 0.1 µM): 89.7%
viability, T/C (second compound 0.316 µM, first compound 0.316 µM): 96.4%
viability, T/C (second compound 0.316 µM, first compound 1 µM): 101%
viability, T/C (second compound 0.316 µM, first compound 3.16 µM): 113%
viability, T/C [10]: 106%
viability, T/C [11]: 105%
viability, T/C (second compound 1 µM, first compound 0.1 µM): 91.3%
viability, T/C (second compound 1 µM, first compound 0.316 µM): 111%
viability, T/C (second compound 1 µM, first compound 1 µM): 89.7%
viability, T/C (second compound 1 µM, first compound 3.16 µM): 77.4%
viability, T/C [12]: 0.73%
viability, T/C [13]: 102%
viability, T/C (second compound 3.16 µM, first compound 0.1 µM): 0.55%
viability, T/C (second compound 3.16 µM, first compound 0.316 µM): 0.5%
viability, T/C (second compound 3.16 µM, first compound 1 µM): 0.41%
viability, T/C (second compound 3.16 µM, first compound 3.16 µM): 105%
viability, T/C [14]: 0.33%
viability, T/C [15]: 0.34%
viability, T/C (second compound 10 µM, first compound 0.1 µM): 0.31%
viability, T/C (second compound 10 µM, first compound 0.316 µM): 0.36%
viability, T/C (second compound 10 µM, first compound 1 µM): 0.18%
viability, T/C (second compound 10 µM, first compound 3.16 µM): 0.93%

CC(=O)Nc1cccc(-n2c(=O)n(C3CC3)c(=O)c3c(Nc4ccc(I)cc4F)n(C)c(=O)c(C)c32)c1
viability, T/C (compound 0.0001 µM): 92.7% [middle of 5 runs]
viability, T/C (compound 0.000316 µM): 89.7% [middle of 5 runs]
viability, T/C (compound 0.001 µM): 84.2% [middle of 5 runs]
viability, T/C (compound 0.00316 µM): 64.2% [middle of 5 runs]
viability, T/C (compound 0.01 µM): 55% [middle of 5 runs]
viability, T/C (compound 0.0316 µM): 14% [middle of 5 runs]
IC50 (curve of compound): 9.89 nM [middle of 5 runs]

CC(=O)Nc1cccc(-n2c(=O)n(C3CC3)c(=O)c3c(Nc4ccc(I)cc4F)n(C)c(=O)c(C)c32)c1 + CNCc1ccccc1-c1csc(C(C)Nc2nc(C)nc3cc(OC)c(OC)cc23)c1
IC50 [1]: 9.09 nM
IC50 [2]: 6.7 nM
IC50 [3]: < 0.1 nM
IC50 [4]: < 0.1 nM
IC50 [5]: < 0.1 nM
viability, T/C (second compound 0.1 µM, first compound 0.0001 µM): 86.5%
viability, T/C (second compound 0.1 µM, first compound 0.000316 µM): 89.1%
viability, T/C (second compound 0.1 µM, first compound 0.001 µM): 75.8%
viability, T/C (second compound 0.1 µM, first compound 0.00316 µM): 59.7%
viability, T/C [6]: 56%
viability, T/C [7]: 14.1%
viability, T/C (second compound 0.316 µM, first compound 0.0001 µM): 91.8%
viability, T/C (second compound 0.316 µM, first compound 0.000316 µM): 111%
viability, T/C (second compound 0.316 µM, first compound 0.001 µM): 83.3%
viability, T/C (second compound 0.316 µM, first compound 0.00316 µM): 60.8%
viability, T/C [8]: 47.8%
viability, T/C [9]: 25.3%
viability, T/C (second compound 1 µM, first compound 0.0001 µM): 50.4%
viability, T/C (second compound 1 µM, first compound 0.000316 µM): 17%
viability, T/C (second compound 1 µM, first compound 0.001 µM): 1.23%
viability, T/C (second compound 1 µM, first compound 0.00316 µM): 10.3%
viability, T/C [10]: 2.02%
viability, T/C [11]: 1.26%
viability, T/C (second compound 3.16 µM, first compound 0.0001 µM): 1.06%
viability, T/C (second compound 3.16 µM, first compound 0.000316 µM): 0.32%
viability, T/C (second compound 3.16 µM, first compound 0.001 µM): 0.34%
viability, T/C (second compound 3.16 µM, first compound 0.00316 µM): 0.19%
viability, T/C [12]: 0.19%
viability, T/C [13]: 0.41%
viability, T/C (second compound 10 µM, first compound 0.0001 µM): 0.57%
viability, T/C (second compound 10 µM, first compound 0.000316 µM): 0.16%
viability, T/C (second compound 10 µM, first compound 0.001 µM): 0.14%
viability, T/C (second compound 10 µM, first compound 0.00316 µM): 0.13%
viability, T/C [14]: 0.15%
viability, T/C [15]: 2.55%
